{"source": "patent US7915238B2", "about": "“Immunomodulatory compounds and methods of use thereof” (Eisai R & D Management Co., Ltd., priority 1999, dated 2011)", "key": {"[1]": {"tested_on": "EGFRvIII peptide", "experiment": "EGFRvIII peptide-specific antibody titers after immunization (ELISA)", "assay_type": "in vivo, C57/BL6J mice", "settings": "s.c. with 25 μg peptide-KLH, 804057 3 μg, GM-CSF 5 μg", "excerpt": "To determine whether an adjuvant can enhance the effect of an oncology antigen (i.e., an antigen that can be used to vaccinate a subject individual against a cancer), C57/BL6J mice were immunized subcutaneously with a tumor-associated peptide, LEEKKGNYVVTDHC (SEQ ID NO:2) (derived from a mutant form of EGFR, […]) conjugated to the protein carrier keyhole limpet hemocyanin (KLH), with or without Compound 804057 or murine GM-CSF, a cytokine used in cancer vaccine trials to boost immune response. Compound 804057 was dosed at 3 μg, GM-CSF at 5 μg and the peptide-KLH conjugate at 25 μg per dose. Mice were immunized three times at intervals of three weeks. Serum was prepared from mice two weeks after each immunization and tested for […] peptide-specific antibodies using ELISA on plates coated with EGFRvIII peptide conjugated to bovine serum albumin. The results in Table 3 are presented as titers from individual animals. The titer is defined as the last serum dilution at which a signal at 0.25 OD units above background was observed."}, "[2]": {"tested_on": "MUC1 IL-10−/− mice", "experiment": "MUC-1 vaccine with adjuvant in mice that develop IBD and colon adenocarcinoma", "assay_type": "in vivo, mouse", "protocol": "To test the effects of a MUC-1 vaccine with Compound 804057 adjuvant for treating inflammatory bowel disease (IBD) and subsequent development of colon adenocarcinoma, an engineered mouse strain that lacks the IL-10 gene and expresses transgenic human MUC1 was used. Such mice spontaneously develop intestinal inflammation resembling IBD followed by colon adenocarcinoma. […] 4, 2006.\nIn these experiments, mice were immunized intranasally with […] of Tn MUC100mer ([…])×5, SEQ ID NO:1) and […] of Compound 804057. Animals were vaccinated at about 4.5 weeks and boosted at about 6.5 weeks and 9 weeks."}, "[3]": {"tested_on": "Nonadherent PBMC", "experiment": "Cytokine production by stimulated nonadherent human PBMC", "assay_type": "cell-based", "settings": "50 nM, 24 hrs"}, "[4]": {"tested_on": "Adherent PBMC", "experiment": "Cytokine production by stimulated adherent human PBMC", "assay_type": "cell-based", "settings": "50 nM"}, "[5]": {"tested_on": "Whole blood", "experiment": "IL-12p70 production in whole blood, 24 hrs (Table 2)", "assay_type": "cell-based, human", "settings": "50 nM"}, "[6]": {"tested_on": "B16F10 murine melanoma cells", "experiment": "Survival of melanoma-bearing mice, i.p. compound with s.c. B16 GM-CSF cell vaccine", "assay_type": "in vivo, B6 mice (C57BL6 mice)", "settings": "i.p. Compound 804057 combined with s.c. B16 GM-CSF cells, three days after tumor inoculation; FIG. 7", "excerpt": "To determine the effect of Compound 804057 when administered intraperitoneally with a cancer vaccine, e.g., granulocyte-macrophage colony stimulating factor (GM-CSF) secreting tumor cells, a mouse model using melanoma cells was used. Compound 804057 is a TLR-4 (Toll-like receptor-4) agonist. B6 mice (C57BL6 mice) were engrafted subcutaneously with […] murine melanoma cells. Three days after tumor cell inoculation, the mice were either (1) vaccinated subcutaneously (s.c.) with 1×10^6 B16F10 tumor cells that were genetically modified to stably express and secrete murine GM-CSF (B16-GM-CSF cells); (2) vaccinated intraperitoneally (i.p.) with Compound 804057; or (3) were treated with a combination of s.c. GM-CSF cell vaccination and i.p. Compound 804057 (the GM-CSF cell vaccination and Compound 804057 vaccination were administered at separate sites in the mice). In these experiments, the GM-CSF cells were inactivated by gamma-irradiation prior to inoculation. Survival of the animals was monitored."}, "[7]": {"tested_on": "Human Whole Blood", "experiment": "Cytokine release in human whole blood (ELISA)", "assay_type": "cell-based", "protocol": "The most readily available human system to test compound activity on monocytes/macrophages is in whole blood. Various concentrations of compounds of the invention were added as 10× stocks in 50 μl of Ca^++, Mg^++-free Hank's balanced salt solution (HBSS) followed by 50 μl of HBSS into 400 μl of heparinized whole blood obtained from normal volunteers (18-51 years old; 110-230 lb.) into the wells of plastic assay plates, for a total volume of 500 μl/well (final concentration of whole blood was 80%). After a 3-hour incubation with gentle shaking at 37° C. in a 5% CO2 atmosphere, the assay plates were centrifuged at 1000×g for 10 min. at 4° C. and plasma was drawn off and frozen at −80° C. Plasma samples were analyzed for TNF-alpha, IL-10, and IL-12 by ELISA (Genzyme Corp., Cambridge, Mass.). Each assay point was tested in triplicate.\nThis stimulatory activity can be compared to that of 10 ng/ml endotoxin (or LPS) present in similar incubations in the same assay."}, "[8]": {"tested_on": "B16F10 murine melanoma cells", "experiment": "Survival of melanoma-bearing mice, intratumoral GM-CSF cells with compound", "assay_type": "in vivo, B6 mice", "settings": "about 3-10 μg, combined with GM-CSF cells, vs untreated or GM-CSF cells alone, FIG. 8", "protocol": "The effect of Compound 804057 on treatment of B6 mice that were engrafted subcutaneously with 1×10^6 syngeneic B16F10 murine melanoma cells was examined. When tumors became palpable, the mice were injected intratumorally with GM-CSF cells alone, or in combination with Compound 804057 (about 3-10 μg). Survival of the animals was monitored."}, "[9]": {"settings": "titer = last serum dilution 0.25 OD above background"}}, "note": "Where “and” joins values, the source holds several entries; their conditions need not be identical. Equal values may be shown once."}
{"smiles": "CCCCCCCCCCCC(=O)CC(=O)N[C@H](COCC[C@@H](CCCCCCC)OC(=O)CCCCCCCCCCC)COP(=O)([O-])OCCNC(=O)NCCOP(=O)([O-])OC[C@@H](COCC[C@@H](CCCCCCC)OC(=O)CCCCCCCCCCC)NC(=O)CC(=O)CCCCCCCCCCC.[Na+].[Na+]", "note": "[ER 804057]", "values": [{"measurement": "Geometric mean titer, IgG1", "setting": "[1]", "value": 20182}, {"measurement": "Antibody titers to EGFRvIII peptide, IgG1, individual animals", "setting": "[1]; [9]", "value": "24000 (6×) and 48000 and 3000"}, {"measurement": "Antibody titers to EGFRvIII peptide, IgG2a, individual animals", "setting": "[1]; [9]", "value": "6000 (2×) and 12000 (3×) and 24000 and 48000 and 1500"}, {"measurement": "appearance of histologically detected tumors", "setting": "[2]; added to the MUC-1 vaccine", "value": "suppresses the appearance of histologically detected tumors"}, {"measurement": "progression to rectal prolapse associated with IBD", "setting": "[2]; added to the MUC-1 vaccine", "value": "can slow the progression to rectal prolapse associated with IBD"}, {"measurement": "Age (weeks)", "setting": "[2]; age of treated mice, Table 5", "value": "12.5-18 weeks"}, {"measurement": "development of colon cancer", "setting": "[2]; intranasal with MUC-1 vaccine (Tn MUC100mer)", "value": "did not develop colon cancer"}, {"measurement": "onset of IBD", "setting": "[2]; intranasal with MUC-1 vaccine (Tn MUC100mer), FIG. 9", "value": "delayed onset of IBD or did not develop IBD"}, {"measurement": "survival", "setting": "[2]; intranasal with MUC-1 vaccine (Tn MUC100mer), FIG. 10", "value": "improved survival"}, {"measurement": "Colon tumors", "setting": "[2]; mice with tumors / mice treated", "value": "3/3"}, {"measurement": "Cytokine Production GM-CSF", "setting": "[3]", "value": 353, "unit": "pg/mL"}, {"measurement": "Cytokine Production IL-1α", "setting": "[3]", "value": 108, "unit": "pg/mL"}, {"measurement": "Cytokine Production IL-1β", "setting": "[3]", "value": 431, "unit": "pg/mL"}, {"measurement": "Cytokine Production Interferon-γ", "setting": "[3]", "value": 331, "unit": "pg/mL"}, {"measurement": "Cytokine Production IL-1α", "setting": "[4]; 4 hrs", "value": 8, "unit": "pg/mL"}, {"measurement": "Cytokine Production IL-1β", "setting": "[4]; 4 hrs", "value": 55, "unit": "pg/mL"}, {"measurement": "Cytokine Production IL-6", "setting": "[4]; 4 hrs", "value": 551, "unit": "pg/mL"}, {"measurement": "Cytokine Production Interferon-α", "setting": "[4]; 4 hrs", "value": 345, "unit": "pg/mL"}, {"measurement": "Cytokine Production TNF-α", "setting": "[4]; 4 hrs", "value": 3627, "unit": "pg/mL"}, {"measurement": "Cytokine Production IL-10", "setting": "[4]; 24 hrs", "value": 175, "unit": "pg/mL"}, {"measurement": "Cytokine Production Interferon-α", "setting": "[4]; 48 hrs", "value": 175, "unit": "pg/mL"}, {"measurement": "Cytokine Production IL-12p70", "setting": "[5]", "value": 1332, "unit": "pg/mL"}, {"measurement": "therapeutic efficacy (survival) of tumor-bearing mice", "setting": "[6]", "value": "enhanced the therapeutic efficacy of the GM-CSF cells"}, {"measurement": "IL-10 release from blood-borne cells", "setting": "[7]; FIG. 2", "value": "stimulate blood-borne cells to release IL-10"}, {"measurement": "IL-12 release from blood-borne cells", "setting": "[7]; FIG. 2", "value": "stimulate blood-borne cells to release IL-12"}, {"measurement": "EC50", "setting": "[7]; whole blood, vs. % of LPS at 10 ng/ml, read-out: WB ED50 vs LPS@ 10 ng/ml", "value": 8, "unit": "nM"}, {"measurement": "survival of tumor-bearing mice", "setting": "[8]", "value": "increased survival"}]}
